From the NIST ThermoML archive (doi:10.1021/je800046k)
± gives the expanded uncertainty stated by the source.

Assays:
[1] = xn = mol fraction of the nth substance listed; conditions: for surface tension liquid-gas: Pendant drop shape; for mass density: 101 kPa, Liquid
[2] = for surface tension liquid-gas: Pendant drop shape; for mass density: 101 kPa, Liquid

| Structure (SMILES) | surface tension liquid-gas ([2]; 298.15 K) [mN/m] | mass density ([2]; 298.15 K) [kg/m3] | surface tension liquid-gas ([2]; 308.15 K) [mN/m] | mass density ([2]; 308.15 K) [kg/m3] | surface tension liquid-gas ([2]; 313.15 K) [mN/m] | mass density ([2]; 313.15 K) [kg/m3] | other results |
| --- | --- | --- | --- | --- | --- | --- | --- |
| Cc1cc(C)cc(C)c1 [1,3,5-trimethylbenzene] + CC(=O)OCC(C)C | – | – | – | – | – | – | surface tension liquid-gas ([1]; 298.15 K, x2 = 0): 28.05 ± 0.31 mN/m; mass density ([1]; 298.15 K, x2 = 0): 861.12 ± 0.53 kg/m3; surface tension liquid-gas ([1]; 308.15 K, x2 = 0): 27.21 ± 0.3 mN/m; mass density ([1]; 308.15 K, x2 = 0): 852.94 ± 0.55 kg/m3; surface tension liquid-gas ([1]; 313.15 K, x2 = 0): 26.78 ± 0.3 mN/m; mass density ([1]; 313.15 K, x2 = 0): 848.82 ± 0.56 kg/m3 |
| CC(=O)OC(C)C [1-methylethyl ethanoate] + Cc1cc(C)cc(C)c1 | – | – | – | – | – | – | surface tension liquid-gas ([1]; 298.15 K, x1 = 1): 21.89 ± 0.25 mN/m; mass density ([1]; 298.15 K, x1 = 1): 866.25 ± 0.34 kg/m3; surface tension liquid-gas ([1]; 308.15 K, x1 = 1): 20.81 ± 0.24 mN/m; mass density ([1]; 308.15 K, x1 = 1): 854.54 ± 0.36 kg/m3; surface tension liquid-gas ([1]; 313.15 K, x1 = 1): 20.29 ± 0.24 mN/m; mass density ([1]; 313.15 K, x1 = 1): 848.61 ± 0.37 kg/m3 |
| Cc1ccc(C)c(C)c1 [1,2,4-trimethylbenzene] + CC(=O)OCC(C)C | – | – | – | – | – | – | surface tension liquid-gas ([1]; 298.15 K, x2 = 0): 29.3 ± 0.33 mN/m; mass density ([1]; 298.15 K, x2 = 0): 871.71 ± 0.54 kg/m3; surface tension liquid-gas ([1]; 308.15 K, x2 = 0): 28.24 ± 0.32 mN/m; mass density ([1]; 308.15 K, x2 = 0): 863.68 ± 0.56 kg/m3; surface tension liquid-gas ([1]; 313.15 K, x2 = 0): 27.71 ± 0.31 mN/m; mass density ([1]; 313.15 K, x2 = 0): 859.58 ± 0.56 kg/m3 |
| CC(=O)OC(C)C [1-methylethyl ethanoate] | 21.89 ± 0.25 | 866.25 ± 0.44 | 20.81 ± 0.24 | 854.54 ± 0.46 | 20.29 ± 0.24 | 848.61 ± 0.47 | – |
| Cc1ccc(C)c(C)c1 [1,2,4-trimethylbenzene] | 29.3 ± 0.33 | 871.71 ± 0.54 | 28.24 ± 0.32 | 863.68 ± 0.56 | 27.71 ± 0.31 | 859.58 ± 0.56 | – |
| CC(=O)OC(C)C [1-methylethyl ethanoate] + Cc1ccc(C)c(C)c1 | – | – | – | – | – | – | surface tension liquid-gas ([1]; 298.15 K, x1 = 1): 21.89 ± 0.25 mN/m; mass density ([1]; 298.15 K, x1 = 1): 866.25 ± 0.44 kg/m3; surface tension liquid-gas ([1]; 308.15 K, x1 = 1): 20.81 ± 0.24 mN/m; mass density ([1]; 308.15 K, x1 = 1): 854.54 ± 0.46 kg/m3; surface tension liquid-gas ([1]; 313.15 K, x1 = 1): 20.29 ± 0.24 mN/m; mass density ([1]; 313.15 K, x1 = 1): 848.61 ± 0.47 kg/m3 |
| Cc1cc(C)cc(C)c1 [1,3,5-trimethylbenzene] | 28.05 ± 0.31 | 861.12 ± 0.41 | 27.21 ± 0.3 | 852.94 ± 0.42 | 26.78 ± 0.3 | 848.82 ± 0.43 | – |
| CC(=O)OCC(C)C [2-methylpropyl ethanoate] | 23.15 ± 0.35 | 866.06 ± 1.2 | 22.16 ± 0.33 | 855.51 ± 1.2 | 21.64 ± 0.33 | 850.16 ± 1.2 | – |
